Each compound was assayed against T1, glucocorticoid receptor (Homo sapiens, UniProt P04150) (assay: Ligand binding assay (GR BIND)).
T1 construct: endogenous in cells
T1 sequence (P04150 1-777): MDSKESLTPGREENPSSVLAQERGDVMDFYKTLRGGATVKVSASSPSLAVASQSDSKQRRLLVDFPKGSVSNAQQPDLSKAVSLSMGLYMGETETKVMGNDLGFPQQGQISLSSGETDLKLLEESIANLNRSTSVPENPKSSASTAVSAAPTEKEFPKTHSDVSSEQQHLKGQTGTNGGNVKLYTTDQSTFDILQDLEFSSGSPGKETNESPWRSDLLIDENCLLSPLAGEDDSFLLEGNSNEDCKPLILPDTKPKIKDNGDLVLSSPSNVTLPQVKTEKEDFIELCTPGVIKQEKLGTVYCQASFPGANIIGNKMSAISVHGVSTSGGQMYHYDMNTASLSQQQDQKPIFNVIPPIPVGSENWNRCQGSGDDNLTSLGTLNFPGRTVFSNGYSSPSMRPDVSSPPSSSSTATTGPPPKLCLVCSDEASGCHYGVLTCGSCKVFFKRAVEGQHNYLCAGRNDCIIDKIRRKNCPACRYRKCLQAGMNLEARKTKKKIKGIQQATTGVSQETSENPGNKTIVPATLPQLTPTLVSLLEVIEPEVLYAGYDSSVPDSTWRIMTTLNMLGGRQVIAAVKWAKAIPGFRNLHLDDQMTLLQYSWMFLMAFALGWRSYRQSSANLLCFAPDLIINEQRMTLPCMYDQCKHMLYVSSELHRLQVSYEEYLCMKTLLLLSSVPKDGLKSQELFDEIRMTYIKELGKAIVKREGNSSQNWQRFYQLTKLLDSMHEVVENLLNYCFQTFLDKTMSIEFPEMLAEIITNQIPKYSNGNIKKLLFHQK
Summary of the method: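 Cytosol from freeze–thawed cells in TEGM (pH 7.2, 10 mM molybdate) was incubated overnight at 4 °C with compound and [3H]-dexamethasone trace (added as 6 nM solution), 2% EtOH final. Bound ligand was captured on hydroxylapatite, filtered, washed and scintillation counted. Values were calculated with dexamethasone as reference.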

Ki [nM]	Structure (SMILES)
7.9	Cc1cc(S(=O)(=O)N(CCO)C[C@H]2CCC3=Cc4c(cnn4-c4ccc(F)cc4)C[C@@]32C)c(C)o1 [Example 66, N-{[(4αR,5S)-1-(4-fluorophenyl)-4α-methyl-1,4,4α,5,6,7-hexahydrocyclopenta[f]indazol-5-yl]methyl}-N-(2-hydroxyethyl)-2,5-dimethylfuran-3-sulfonamide]
3.1	COC(=O)c1ccccc1S(=O)(=O)N(CCO)C[C@H]1CCC2=Cc3c(cnn3-c3ccc(F)cc3)C[C@@]21C [Example 73, methyl 2-{[{[(4αR,5S)-1-(4-fluorophenyl)-4α-methyl-1,4,4α,5,6,7-hexahydrocyclopenta[f]indazol-5-yl]methyl}(2-hydroxyethyl)amino]sulfonyl}benzoate]
3.2	C[C@]12Cc3cnn(-c4ccc(F)cc4)c3C=C1CC[C@@H]2CN(CCO)S(=O)(=O)c1ccc(F)cc1F [Example 82, 2,4-difluoro-N-{[(4αR,5S)-1-(4-fluorophenyl)-4α-methyl-1,4,4α,5,6,7-hexahydrocyclopenta[f]indazol-5-yl]methyl}-N-(2-hydroxyethyl)benzenesulfonamide]
1.8	Cc1ccccc1S(=O)(=O)N(CCO)C[C@H]1CCC2=Cc3c(cnn3-c3ccc(F)cc3)C[C@@]21C [Example 77, N-{[(4αR,5S)-1-(4-fluorophenyl)-4α-methyl-1,4,4α,5,6,7-hexahydrocyclopenta[f]indazol-5-yl]methyl}-N-(2-hydroxyethyl)-2-methylbenzenesulfonamide]
7.2	C[C@]12Cc3cnn(-c4ccc(F)cc4)c3C=C1CC[C@@H]2CN(CCO)S(=O)(=O)c1ccccc1Cl [Example 81, 2-chloro-N-{[(4αR,5S)-1-(4-fluorophenyl)-4α-methyl-1,4,4α,5,6,7-hexahydrocyclopenta[f]indazol-5-yl]methyl}-N-(2-hydroxyethyl)benzenesulfonamide]
3	Cc1ccc(S(=O)(=O)N(CCO)C[C@H]2CCC3=Cc4c(cnn4-c4ccc(F)cc4)C[C@@]32C)s1 [Example 64, N-{[(4αR,5S)-1-(4-fluorophenyl)-4α-methyl-1,4,4α,5,6,7-hexahydrocyclopenta[f]indazol-5-yl]methyl}-N-(2-hydroxyethyl)-5-methylthiophene-2-sulfonamide]
13.7	C[C@]12Cc3cnn(-c4ccc(F)cc4)c3C=C1CC[C@@H]2CN(CCO)S(=O)(=O)c1cc(C(F)(F)F)ccc1Cl [Example 80, 2-chloro-N-{[(4αR,5S)-1-(4-fluorophenyl)-4α-methyl-1,4,4α,5,6,7-hexahydrocyclopenta[f]indazol-5-yl]methyl}-N-(2-hydroxyethyl)-5-(trifluoromethyl)benzenesulfonamide]

More lines, now with the values behind:

Structure (SMILES)	Ki [nM]
CNC(=O)Nc1ccc(S(=O)(=O)N(CCO)C[C@H]2CCC3=Cc4c(cnn4-c4ccc(F)cc4)C[C@@]32C)c(Cl)c1 [Example 76, 2-chloro-N-{[(4αR,5S)-1-(4-fluorophenyl)-4α-methyl-1,4,4α,5,6,7-hexahydrocyclopenta[f]indazol-5-yl]methyl}-N-(2-hydroxyethyl)-4-{[(methylamino)carbonyl]amino}-benzenesulfonamide]	7.7
C[C@]12Cc3cnn(-c4ccc(F)cc4)c3C=C1CC[C@@H]2CN(CCO)S(=O)(=O)c1ccc(Oc2ccccc2)cc1 [Example 79, N-{[(4αR,5S)-1-(4-fluorophenyl)-4α-methyl-1,4,4α,5,6,7-hexahydrocyclopenta[f]indazol-5-yl]methyl}-N-(2-hydroxyethyl)-4-phenoxybenzenesulfonamide]	4.8
Cn1nc(C(F)(F)F)cc1-c1ccc(S(=O)(=O)N(CCO)C[C@H]2CCC3=Cc4c(cnn4-c4ccc(F)cc4)C[C@@]32C)s1 [Example 67, N-{[(4αR,5S)-1-(4-fluorophenyl)-4α-methyl-1,4,4α,5,6,7-hexahydrocyclopenta[f]indazol-5-yl]methyl}-N-(2-hydroxyethyl)-5-[1-methyl-3-(trifluoromethyl)-1H-pyrazole-5-yl]thiophene-2-sulfonamide]	13.4
C[C@]12Cc3cnn(-c4ccc(F)cc4)c3C=C1CC[C@@H]2CN(CCO)S(=O)(=O)c1cc(F)cc(F)c1 [Example 72]	1.4
Cc1noc(C)c1S(=O)(=O)N(CCO)C[C@H]1CCC2=Cc3c(cnn3-c3ccc(F)cc3)C[C@@]21C [Example 71, N-{[(4αR,5S)-1-(4-fluorophenyl)-4α-methyl-1,4,4α,5,6,7-hexahydrocyclopenta[f]indazol-5-yl]methyl}-N-(2-hydroxyethyl)-3,5-dimethylisoxazole-4-sulfonamide]	5
C[C@]12Cc3cnn(-c4ccc(F)cc4)c3C=C1CC[C@@H]2CN(CCO)S(=O)(=O)c1ccc(Oc2ccccn2)cc1 [Example 74, N-{[(4αR,5S)-1-(4-fluorophenyl)-4α-methyl-1,4,4α,5,6,7-hexahydrocyclopenta[f]indazol-5-yl]methyl}-N-(2-hydroxyethyl)-4-(pyridin-2-yloxy)benzenesulfonamide]	3
Cc1ccc(CCN(C[C@H]2CCC3=Cc4c(cnn4-c4ccc(F)cc4)C[C@@]32C)S(=O)(=O)c2ccccc2F)cc1 [Example 91, 2-fluoro-N-{[(4αR,5S)-1-(4-fluorophenyl)-4α-methyl-1,4,4α,5,6,7-hexahydrocyclopenta[f]indazol-5-yl]methyl}-N-[2-(4-methylphenyl)ethyl]benzenesulfonamide]	2
C[C@]12Cc3cnn(-c4ccc(F)cc4)c3C=C1CC[C@@H]2CN(CCc1ccccn1)S(=O)(=O)Cc1cccnc1 [Example 1, N-{[(4αR,5S)-1-(4-Fluorophenyl)-4α-methyl-1,4,4α,5,6,7-hexahydrocyclopenta[f]indazol-5-yl]methyl}-1-pyridin-3-yl-N-(2-pyridin-2-ylethyl)methanesulfonamide]	1.8
C[C@]12Cc3cnn(-c4ccc(F)cc4)c3C=C1CC[C@@H]2CN(CCc1ccccc1F)S(=O)(=O)Cc1cccc(C(F)(F)F)c1 [Example 88, N-[2-(2-fluorophenyl)ethyl]-N-{[(4αR,5S)-1-(4-fluorophenyl)-4α-methyl-1,4,4α,5,6,7-hexahydrocyclopenta[f]indazol-5-yl]methyl}-1-[3-(trifluoromethyl)phenyl]methanesulfonamide]	3.7
C[C@]12Cc3cnn(-c4ccc(F)cc4)c3C=C1CC[C@@H]2CN(CCc1ccccc1Cl)S(=O)(=O)c1ccccc1F [Example 92, N-[2-(2-chlorophenyl)ethyl]-2-fluoro-N-{[(4αR,5S)-1-(4-fluorophenyl)-4α-methyl-1,4,4α,5,6,7-hexahydrocyclopenta[f]indazol-5-yl]methyl}benzenesulfonamide]	3

Reference: patent US8299048B2, “Hexahydrocyclopentyl[f]indazole sulfonamides and derivatives thereof as selective glucocorticoid receptor modulators” (Merck Sharp & Dohme Corp., priority 2008, dated 2012)
